Reference: patent US20100056508A1, “AMINE DERIVATIVES AND THEIR USE IN BETA-2-ADRENORECEPTOR MEDIATED DISEASES” (ASTRAZENECA AB, priority 2006, published 2010)
Structures can show the parent of a compound that is named as a salt.

How the values were obtained:
[1] = target: T1, recombinant human adrenergic beta 1 receptors (Homo sapiens, UniProt P08588); experiment: Adrenergic β1 selectivity assay, [125I]-Iodocyanopindolol binding to membranes; details: inhibition of [125I]-Iodocyanopindolol binding, read-out: β1 bind pIC50 (converted)
T1 construct: purchased Euroscreen
T1 sequence (P08588 whole entry): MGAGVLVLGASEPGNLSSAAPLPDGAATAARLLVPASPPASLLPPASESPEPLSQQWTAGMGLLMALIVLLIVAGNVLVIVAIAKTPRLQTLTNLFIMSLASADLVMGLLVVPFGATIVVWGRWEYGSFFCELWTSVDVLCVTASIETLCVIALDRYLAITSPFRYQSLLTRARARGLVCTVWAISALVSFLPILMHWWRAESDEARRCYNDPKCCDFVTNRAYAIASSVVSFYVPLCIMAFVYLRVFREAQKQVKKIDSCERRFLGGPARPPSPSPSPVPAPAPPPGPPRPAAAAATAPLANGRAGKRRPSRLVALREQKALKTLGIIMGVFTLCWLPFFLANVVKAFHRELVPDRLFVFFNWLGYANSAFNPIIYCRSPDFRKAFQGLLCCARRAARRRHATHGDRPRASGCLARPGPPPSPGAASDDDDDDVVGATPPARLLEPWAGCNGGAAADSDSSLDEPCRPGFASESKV
Outline: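 Displacement of [^125I]-Iodocyanopindolol (0.036 nM final) from human β1 receptor membranes, 2 hours at room temperature, pH 7.4 HEPES/EDTA/NaCl buffer. After filtration, scintillation counting; NSB set with 10 μM propranolol and subtracted. Four-parameter logistic fitting gave pIC50.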

[2] = target: T2, recombinant human Dopamine Subtype D2s receptors (Homo sapiens, UniProt P14416); experiment: Dopamine D2 selectivity assay, [3H]-spiperone binding to membranes; details: inhibition of [3H]-spiperone binding, read-out: D2 bind pIC50 (converted)
T2 construct: purchased Perkin Elmer
T2 sequence (P14416 1-414 isoform P14416-2): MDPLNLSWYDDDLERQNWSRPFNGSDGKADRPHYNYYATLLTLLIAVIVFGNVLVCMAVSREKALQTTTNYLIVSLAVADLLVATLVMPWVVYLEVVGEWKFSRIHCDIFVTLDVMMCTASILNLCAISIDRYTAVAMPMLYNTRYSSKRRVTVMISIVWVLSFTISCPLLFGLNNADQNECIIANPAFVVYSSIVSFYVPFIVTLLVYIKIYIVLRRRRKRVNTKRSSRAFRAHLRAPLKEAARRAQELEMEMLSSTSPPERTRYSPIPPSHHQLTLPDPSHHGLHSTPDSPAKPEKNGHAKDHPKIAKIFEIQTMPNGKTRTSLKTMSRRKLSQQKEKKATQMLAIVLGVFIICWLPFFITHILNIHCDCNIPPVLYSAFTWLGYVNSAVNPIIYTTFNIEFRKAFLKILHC
Outline: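 Human D2s receptor membranes incubated 2 h at room temperature with 0.16 nM [3H]-spiperone and test compound in HEPES buffer pH 7.4 (120 mM NaCl, 0.1% gelatin). Non-specific binding defined with 10 μM haloperidol; filter-bound radioactivity counted, pIC50 from four-parameter logistic fit.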

Adrenergic β2 = target: T3, Adrenergic β2 (Homo sapiens, UniProt P07550); experiment: Adrenergic β2 mediated cAMP production in H292 cells (AlphaScreen cAMP detection); assay type: cell-based; design: key to β2 Int Act: fraction of formoterol maximum activity (formoterol = 1); details: for β2 Int Act: Intrinsic Activity as a fraction relative to the maximum activity determined for formoterol; for EC50: cAMP production, 60 minutes at room temperature, 300 μM rolipram, read-out: β2 pEC50 (converted)
T3 construct: Adherent H292 cells were removed from tissue culture flasks; endogenous in cells; host or cells: H292 cells
T3 sequence (P07550 whole entry): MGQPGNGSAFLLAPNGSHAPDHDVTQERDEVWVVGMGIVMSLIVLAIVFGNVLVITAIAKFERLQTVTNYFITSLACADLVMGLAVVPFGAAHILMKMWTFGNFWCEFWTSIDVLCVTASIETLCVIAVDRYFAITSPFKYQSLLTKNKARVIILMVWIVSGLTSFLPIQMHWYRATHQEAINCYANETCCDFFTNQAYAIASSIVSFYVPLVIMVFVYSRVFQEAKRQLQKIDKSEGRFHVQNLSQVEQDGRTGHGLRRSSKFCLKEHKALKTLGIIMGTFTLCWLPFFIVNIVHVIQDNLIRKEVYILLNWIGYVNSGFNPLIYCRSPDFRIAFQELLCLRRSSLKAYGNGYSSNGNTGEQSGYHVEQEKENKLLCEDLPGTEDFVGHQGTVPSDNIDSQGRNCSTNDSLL
Outline: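 H292 cells pre-treated 10 min with rolipram (300 μM final), then given agonist for 60 min at room temperature in HBSS/10 mM HEPES pH 7.4, 1.6% DMSO final. Lysate cAMP measured by AlphaScreen against a cAMP standard curve. Four-parameter fit gives pEC50; intrinsic activity relative to formoterol maximum.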

SMILES | IC50 [1] [nM] | IC50 [2] [nM] | β2 Int Act (Adrenergic β2) | EC50 (Adrenergic β2) [nM]
O=C(CCNCCc1cc(F)cc(F)c1)N(CCNCCc1ccc(O)c2[nH]c(=O)ccc12)C1CCCCC1 [Example 15, N-Cyclohexyl-3-(3,5-difluorophenethylamino)-N-(2-(2-(8-hydroxy-2-oxo-1,2-dihydroquinolin-5-yl)ethylamino)ethyl)propanamide bis(trifluoroacetate)] | > 10000 | 1260 | 0.88 | 7.94
CCCC[C@@H](C)N(CCNCCc1ccc(O)c2c1OCC(=O)N2)C(=O)CCNCCc1cc(F)cc(Cl)c1 [Example 50, (R)-3-(3-Chloro-5-fluorophenethylamino)-N-(hexan-2-yl)-N-(2-(2-(5-hydroxy-3-oxo-3,4-dihydro-2H-benzo[b][1,4]oxazin-8-yl)ethylamino)ethyl)propanamide bis(trifluoroacetate)] | 1260 | 31.6 | 0.89 | 1.26
O=C(CCNCCc1cc(F)ccc1F)N(CCNCCc1ccc(O)c2[nH]c(=O)ccc12)C1CCCCC1 [Example 17, N-Cyclohexyl-3-(2,5-difluorophenethylamino)-N-(2-(2-(8-hydroxy-2-oxo-1,2-dihydroquinolin-5-yl)ethylamino)ethyl)propanamide bis(trifluoroacetate)] | 12600 | 1260 | 0.93 | 3.98
CCCC[C@@H](C)N(CCNCCc1ccc(O)c2c1OCC(=O)N2)C(=O)CCNCCc1cc(F)ccc1F [Example 54, (R)-3-(2,5-Difluorophenethylamino)-N-(hexan-2-yl)-N-(2-(2-(5-hydroxy-3-oxo-3,4-dihydro-2H-benzo[b][1,4]oxazin-8-yl)ethylamino)ethyl)propanamide bis(trifluoroacetate)] | 2000 | 31.6 | 0.96 | 5.01
O=C1COc2c(CCNCCN(C(=O)CCNCCc3ccc(F)c(F)c3)C3CCCCCC3)ccc(O)c2N1 [Example 67, N-Cycloheptyl-3-(3,4-difluorophenethylamino)-N-(2-(2-(5-hydroxy-3-oxo-3,4-dihydro-2H-benzo[b][1,4]oxazin-8-yl)ethylamino)ethyl)propanamide bis(trifluoroacetate)] | 1000 | 100 | 0.87 | 3.16
O=C1COc2c(CCNCCN(C(=O)CCNCCc3cccc(F)c3F)C3CCCCC3)ccc(O)c2N1 [Example 36, N-Cyclohexyl-3-(2,3-difluorophenethylamino)-N-(2-(2-(5-hydroxy-3-oxo-3,4-dihydro-2H-benzo[b][1,4]oxazin-8-yl)ethylamino)ethyl)propanamide bis(trifluoroacetate)] | 3160 | 631 | 0.91 | 1.26
CCCC[C@@H](C)N(CCNCCc1ccc(O)c2c1OCC(=O)N2)C(=O)CCNCCc1ccc(Cl)c(Cl)c1 [Example 55, (R)-3-(3,4-Dichlorophenethylamino)-N-(hexan-2-yl)-N-(2-(2-(5-hydroxy-3-oxo-3,4-dihydro-2H-benzo[b][1,4]oxazin-8-yl)ethylamino)ethyl)propanamide bis(trifluoroacetate)] | 1000 | 50.1 | 0.92 | 31.6
O=C1COc2c(CCNCCN(C(=O)CCNCCc3ccc(C(=O)O)cc3)C3CCCCC3)ccc(O)c2N1 [Example 43, 4-(2-(3-(Cyclohexyl(2-(2-(5-hydroxy-3-oxo-3,4-dihydro-2H-benzo[b][1,4]oxazin-8-yl)ethylamino)ethyl)amino)-3-oxopropylamino)ethyl)benzoic acid bis(trifluoroacetate)] | > 10000 | > 10000 | 0.97 | 31.6
O=C1COc2c(CCNCCN(C(=O)CCOCCc3ccccc3)C3CCCCC3)ccc(O)c2N1 [Example 70, N-Cyclohexyl-N-(2-(2-(5-hydroxy-3-oxo-3,4-dihydro-2H-benzo[b][1,4]oxazin-8-yl)ethylamino)ethyl)-3-phenethoxypropanamide trifluoroacetate] | 3980 | 1000 | 0.97 | 3.98
O=C(CCNCCc1cccc(Cl)c1)N(CCNCCc1ccc(O)c2[nH]c(=O)ccc12)C1CCCCCC1 [Example 3, 3-(3-Chlorophenethylamino)-N-cycloheptyl-N-(2-(2-(8-hydroxy-2-oxo-1,2-dihydroquinolin-5-yl)ethylamino)ethyl)propanamide bis(trifluoroacetate)] | 1260 | 200 | 0.82 | 7.94
O=C(CCNCCc1cccc(F)c1F)N(CCNCCc1ccc(O)c2[nH]c(=O)ccc12)C1CCCCC1 [Example 18, N-Cyclohexyl-3-(3-difluorophenethylamino)-N-(2-(2-(8-hydroxy-2-oxo-1,2-dihydroquinolin-5-yl)ethylamino)ethyl)propanamide bis(trifluoroacetate)] | > 10000 | 3160 | 0.95 | 12.6
Cc1cc(CCNCCC(=O)N(CCNCCc2ccc(O)c3c2OCC(=O)N3)C2CCCCCC2)ccc1F [Example 62, N-Cycloheptyl-3-(4-fluoro-3-methylphenethylamino)-N-(2-(2-(5-hydroxy-3-oxo-3,4-dihydro-2H-benzo[b][1,4]oxazin-8-yl)ethylamino)ethyl)propanamide bis(trifluoroacetate)] | 251 | 63.1 | 0.86 | 3.98
CCCC[C@@H](C)N(CCNCCc1ccc(O)c2c1OCC(=O)N2)C(=O)CCNCCc1ccc(Cl)s1 [Example 49, (R)-3-(2-(5-Chlorothiophen-2-yl)ethylamino)-N-(hexan-2-yl)-N-(2-(2-(5-hydroxy-3-oxo-3,4-dihydro-2H-benzo[b][1,4]oxazin-8-yl)ethylamino)ethyl)propanamide bis(trifluoroacetate)] | 1000 | 63.1 | 1.01 | 2.51
O=C1COc2c(CCNCCN(C(=O)CCNCCc3cc(F)cc(F)c3)C3CCCCCC3)ccc(O)c2N1 [Example 65, N-Cycloheptyl-3-(3,5-difluorophenethylamino)-N-(2-(2-(5-hydroxy-3-oxo-3,4-dihydro-2H-benzo[b][1,4]oxazin-8-yl)ethylamino)ethyl)propanamide bis(trifluoroacetate)] | 2510 | 126 | 0.93 | 1.58
O=C1COc2c(CCNCCN(C(=O)CCNCCc3ccc(F)c(F)c3)C3CCCCC3)ccc(O)c2N1 [Example 42, N-Cyclohexyl-3-(3,4-difluorophenethylamino)-N-(2-(2-(5-hydroxy-3-oxo-3,4-dihydro-2H-benzo[b][1,4]oxazin-8-yl)ethylamino)ethyl)propanamide bis(trifluoroacetate)] | 3160 | 316 | 0.9 | 2
CCCC[C@@H](C)N(CCNCCc1ccc(O)c2c1OCC(=O)N2)C(=O)CCNCCc1ccc(F)c(F)c1 [Example 52, (R)-3-(3,4-Difluorophenethylamino)-N-(hexan-2-yl)-N-(2-(2-(5-hydroxy-3-oxo-3,4-dihydro-2H-benzo[b][1,4]oxazin-8-yl)ethylamino)ethyl)propanamide bis(trifluoroacetate)] | 1580 | 63.1 | 0.95 | 10
O=C(CCNCCc1cccc(Cl)c1)N(CCNCCc1ccc(O)c2[nH]c(=O)ccc12)C1CCCCC1 [Example 13, 3-(3-Chlorophenethylamino)-N-cyclohexyl-N-(2-(2-(8-hydroxy-2-oxo-1,2-dihydroquinolin-5-yl)ethylamino)ethyl)propanamide bis(trifluoroacetate)] | > 10000 | 50.1 | 0.86 | 7.94
O=C1COc2c(CCNCCN(C(=O)CCNCCc3ccc(Cl)c(Cl)c3)C3CCCCCC3)ccc(O)c2N1 [Example 26, N-Cycloheptyl-3-(3,4-dichlorophenethylamino)-N-(2-(2-(5-hydroxy-3-oxo-3,4-dihydro-2H-benzo[b][1,4]oxazin-8-yl)ethylamino)ethyl)propanamide bis(trifluoroacetate)] | 2000 | 31.6 | 0.74 | 2.51
CCCC[C@@H](C)N(CCNCCc1ccc(O)c2c1OCC(=O)N2)C(=O)CCNCCc1ccc(F)c(Cl)c1 [Example 48, (R)-3-(3-Chloro-4-fluorophenethylamino)-N-(hexan-2-yl)-N-(2-(2-(5-hydroxy-3-oxo-3,4-dihydro-2H-benzo[b][1,4]oxazin-8-yl)ethylamino)ethyl)propanamide bis(trifluoroacetate)] | 794 | 79.4 | 0.91 | 2
